Test results as given in article PMC9579956 (RSC Medicinal Chemistry, 2022).

The compounds below were run against Mycobacterium thermoresistible (Mtr) LpqY (Mycolicibacterium thermoresistibile, UniProt G7CES0). Conditions: single dose MST screen against LpqY.
Format: binding

Mycobacterium thermoresistible (Mtr) LpqY, sequence (G7CES0 29-471): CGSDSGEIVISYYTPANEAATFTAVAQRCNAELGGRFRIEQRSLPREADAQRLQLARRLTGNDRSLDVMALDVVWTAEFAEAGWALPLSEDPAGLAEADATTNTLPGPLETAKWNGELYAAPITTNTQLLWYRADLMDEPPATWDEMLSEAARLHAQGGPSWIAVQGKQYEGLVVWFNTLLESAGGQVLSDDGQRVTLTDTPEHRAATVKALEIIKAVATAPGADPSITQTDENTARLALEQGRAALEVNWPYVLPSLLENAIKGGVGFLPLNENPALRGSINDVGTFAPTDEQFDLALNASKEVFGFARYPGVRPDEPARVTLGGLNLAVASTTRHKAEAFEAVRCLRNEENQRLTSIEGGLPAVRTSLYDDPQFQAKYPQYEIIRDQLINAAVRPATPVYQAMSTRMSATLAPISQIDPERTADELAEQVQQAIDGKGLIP

Structure (SMILES) | Pathogen Box screen signal/noise ratio
O[C@@H](c1cc(C(F)(F)F)nc2c(C(F)(F)F)cccc12)[C@H]1CCCCN1 [MMV000016] | 1.8
N=C(N)c1ccc(OCCCCCOc2ccc(C(=N)N)cc2)cc1 [MMV000062] | 0.3
CCN(CC)CCCCCCNc1cc(OC)cc2c(C)ccnc12 [MMV000063] | 2.2
O=S(=O)(c1ccc(Cl)cc1)N1CCN(C(=S)NCc2ccco2)CC1 [MMV000858] | 2.2
COc1cccc2c(C)nc(N=C(N)N)nc12 [MMV000907] | 1.1
CCCS(=O)(=O)N1CCC(CO)(Cc2ccccc2C(F)(F)F)CC1 [MMV001059] | 0.0926
COC(=O)C1=C(C)NC(C)=C(C(=O)OC(C)C)C1c1cccc2nonc12 (stereo not shown) [MMV001493] | 1.1
CC1CS(=O)(=O)CCN1/N=C/c1ccc([N+](=O)[O-])o1 (stereo not shown) [MMV001499] | 2.4
CNCCC(Oc1ccc(C(F)(F)F)cc1)c1ccccc1 (stereo not shown) [MMV001561] | 0.9
NCCCC(N)(C(=O)O)C(F)F (stereo not shown) [MMV001625] | 0.316
O=C(C1CCCCC1)N1CC(=O)N2CCc3ccccc3C2C1 (stereo not shown) [MMV002529] | 0.167
CCN(CC)C(=O)N1CCN(C)CC1 [MMV002816] | 1.5
Oc1c(I)cc(I)c2cccnc12 [MMV002817] | 0.152
COC(=O)Nc1nc2cc(C(=O)c3ccccc3)ccc2[nH]1 [MMV003152] | 1.9
CN1CCCN(C(c2ccccc2)c2ccc(Cl)cc2)CC1 (stereo not shown) [MMV004168] | 0.9
O=C1Nc2ccc(Br)cc2C12NCCc1c2[nH]c2ccccc12 (stereo not shown) [MMV006239] | 2.0
Cc1ccc2[nH]c3c(NCCN(C)C)ncnc3c2c1 [MMV006372] | 0.333
COc1cc2ncnc(NC3CCN(Cc4ccccc4)CC3)c2cc1OC [MMV006741] | 4.3
Cc1cc(Cl)c(S(=O)(=O)N2CCCC2)cc1OCC(=O)NC1CCCCC1 [MMV006833] | 1.6
CN(C)c1cc(NC(=O)Nc2ccccc2)c2ccccc2n1 [MMV006901] | 1.2
Cc1cc(NC(=O)c2ccc(S(=O)(=O)N(Cc3ccccc3)C(C)C)cc2)no1 [MMV007133] | 0.4

Structure (SMILES) | Pathogen Box screen signal/noise ratio
COc1cc(OC)cc(C(=O)NCC2Cc3cc(Cl)cc(-c4ccncc4)c3O2)c1 (stereo not shown) [MMV007471] | 0.2
Cc1cc(C)n(-c2ccc(NC(=O)C3CCN(Cc4cnc(C)s4)CC3)cc2)n1 [MMV007625] | 1.4
CCOc1ccc(-c2nc(NC(=O)CS(=O)(=O)c3ccccc3)sc2C)cc1 [MMV007638] | 0.254
O=C(NC1CC1)c1ccc(CSCc2ccccc2Cl)o1 [MMV007803] | 0.148
Nc1ccc(C(=O)Nc2ccc(-c3nc4ccccc4o3)cc2)cc1 [MMV007920] | 0.9
COc1ccc(CN2CCOc3ccc(C(C)(O)CN(C)C)cc3C2)cc1C (stereo not shown) [MMV008439] | 0.222
Cc1cc(C(=O)Nc2cnn(Cc3ccc(Cl)cc3Cl)c2)no1 [MMV009054] | 0.179
O=C(C1CCN(c2nnnn2-c2ccccc2)CC1)N1CCc2ccccc2C1 [MMV009135] | 1.2
COc1ccc(-c2cnc3ccc(NCc4ccc(S(N)(=O)=O)cc4)nn23)cn1 [MMV010545] | 0.463
COc1cc(-c2cc(-c3ccc(S(C)(=O)=O)cc3)cnc2N)ccc1O [MMV010576] | 3.1
c1csc(-c2cnc3sc(NCC4CCOCC4)nn23)c1 [MMV010764] | 0.667
Cc1cc(Nc2ccc(C(F)(F)F)cc2)n2ccnc2n1 [MMV011229] | 0.2
COc1ccc(CCN2CCC(NCc3cccc(N(C)C)c3)CC2)cc1 [MMV011511] | 0.8
NCC(=O)N1CCn2c(nc(-c3ccccc3)c2Nc2ccc3c(c2)OCO3)C1 [MMV011691] | 1.3
FC(F)(F)c1cnc(Sc2nnc(-c3ccncc3)o2)c(Cl)c1 [MMV011765] | 1.6
Cc1ccc(NC(=O)c2nc[nH]c2C(=O)Nc2nc3ccccc3[nH]2)c(C)c1 [MMV011903] | 1.4
Cc1nc2ccccn2c1C(=O)NCc1ccc(Cl)cc1 [MMV012074] | 1.0
Cc1cc(Nc2ccncc2)n2nc(C)c(-c3ccccc3Cl)c2n1 [MMV016136] | 1.7
Cc1ccc(-c2cc(C(=O)Nc3cccnc3)c3cc(Br)ccc3n2)cc1 [MMV016838] | 0.75
Cc1cc(C)n2nc(C(=O)Nc3cc(C(F)(F)F)ccc3N3CCOCC3)nc2n1 [MMV019087] | 1.2
Cc1ccc2c(c1C)NC(=O)C21NN=C(c2ccccc2)S1 (stereo not shown) [MMV019189] | 1.4

Structure (SMILES) | Pathogen Box screen signal/noise ratio
COc1ccc(C2CC(c3cccs3)=NN2C(=O)c2ccco2)cc1OC (stereo not shown) [MMV019234] | 2.1
CCC(NC(=O)c1ccccc1NC(=O)c1ccc(C)cc1)C(=O)OC (stereo not shown) [MMV019551] | 0.267
CCN(CC)S(=O)(=O)c1ccc(Cl)c(C(=O)Nc2ccc3nc(C)sc3c2)c1 [MMV019721] | 1.3
Cc1ccc(S(=O)(=O)N2CCN(C(=O)c3cc(-c4ccccc4)[nH]n3)CC2)cc1 [MMV019742] | 0.286
CCOc1ccccc1C(=O)Nc1cccc(-c2nc3ncccn3c2C)c1 [MMV019790] | 1.6
Cc1ccc2cc(C3NC(=O)c4ccccc4N3)c(Cl)nc2c1 (stereo not shown) [MMV019807] | 0.7
O=C(Nc1ccnc(-c2cccnc2)n1)c1cc(C(F)(F)F)cc(C(F)(F)F)c1 [MMV019838] | 2.8
Cc1nn(C)cc1C(C)Nc1nncc(-c2ccc(C(F)(F)F)cc2)n1 (stereo not shown) [MMV019993] | 0.25
COc1cccc(CC(=O)N2CCC(n3c(C)nc4ccc(F)cc43)CC2)c1 [MMV020081] | 0.152
CC1CC1C(=O)NC1CCN(CC2(c3ccccc3)CCCCC2)CC1 (stereo not shown) [MMV020120] | 1.1
CNC(=O)c1cc(S(=O)(=O)N2CCN(c3ccccn3)CC2)cs1 [MMV020136] | 0.5
Cc1cc(C(=O)Nc2ccc(-c3ccccc3)cc2)no1 [MMV020152] | 0.742
CC(C)NCC(=O)Nc1cccc(C(=O)Nc2cccc(C(F)(F)F)c2)c1 [MMV020165] | 4.3
Cc1ccc(NC(=O)c2cc(S(=O)(=O)NC(C)(C)C)ccc2C)nc1 [MMV020289] | 1.4
CC(C(=O)N1CCCC1)N1CCN(S(=O)(=O)c2ccc(C(C)(C)C)cc2)CC1 (stereo not shown) [MMV020291] | 1.8
Cc1nnc(NC(=O)c2cn(-c3ccccc3)nc2-c2ccccc2C)o1 [MMV020320] | 0.6
CC1CCCN(C(=O)C(C)Nc2cc(Cl)ccc2N2CCOCC2)C1 (stereo not shown) [MMV020388] | 0.556
CC(C)C(C(=O)Nc1ccc(S(=O)(=O)N(C)C)cc1)c1ccc(Cl)cc1 (stereo not shown) [MMV020391] | 0.25
Cc1ccc(Oc2ccc(NC(=O)CNc3ccccc3N3CCCC3=O)cc2)cc1 [MMV020512] | 3.4
COc1ccccc1CNC(=O)c1cc(C2CC2)nc2c1cnn2C(C)C [MMV020517] | 2.3
Cc1cc2ccccc2n1CC(=O)N1CC(C(=O)N2CCCCC2)Oc2ccccc21 (stereo not shown) [MMV020520] | 2.0

Structure (SMILES) | Pathogen Box screen signal/noise ratio
O=C(NC1CC1)c1ccc(N2CCOc3ccc(Cl)cc32)s1 [MMV020537] | 1.9
CC(C)C(NC(=O)Cc1cccc2ccccc12)C(=O)Nc1cccc(C#N)c1 (stereo not shown) [MMV020591] | 0.25
Cc1noc(C)c1C(=O)N1CCCC(c2[nH]c3c(C)cccc3c2-c2ccncc2)C1 (stereo not shown) [MMV020623] | 2.5
COc1ccc(-c2cncc3ccc(C(=O)NCCCn4ccnc4)nc23)cc1 [MMV020670] | 2.7
COc1ccc(Cl)cc1NC(=O)CN(C)C(=O)c1cnn(-c2ccccc2)n1 [MMV020710] | 1.8
CC(C)(C)c1cc(C(=O)Nc2cccnc2)cc(C(=O)Nc2cccnc2)c1 [MMV020982] | 1.3
c1ccc(-c2nc(NC3CCCCC3)cc(C3CC3)n2)nc1 [MMV021013] | 0.0694
CO/C=C(/C(=O)OC)c1ccccc1Oc1cc(Oc2ccccc2C#N)ncn1 [MMV021057] | 0.6
Cc1cc(NCC(C)C)c2n[nH]c(-c3ccccc3)c2n1 [MMV021375] | 0.9
Cc1cc(NCCc2ccccc2)nc(NC(=N)Nc2ccc(Cl)cc2)n1 [MMV021660] | 1.6
CN1CCC(NCc2cccc(-c3ccc(S(=O)(=O)NCc4ccccc4)cc3)c2)CC1 [MMV022029] | -0.0167
CCN(CC)CCCN1CCN(C(=O)c2cccc(-c3noc(C(F)(F)F)n3)c2)CC1 [MMV022236] | 0.542
O=C(Nc1ccc(N2CCNCC2)cc1)c1ccn2ncc(-c3cccc(Cl)c3)c2n1 [MMV022478] | 2.0
c1ccc2c(c1)CN(CC1CC1)CC1(CCN(Cc3c[nH]c4cnccc34)CC1)O2 [MMV023183] | 2.8
Cc1nc(-c2cccc(NCc3ccccc3)c2)[nH]c1C [MMV023227] | 1.4
Nc1nccc2ccc(-c3ccc4nccn4c3)cc12 [MMV023233] | 0.9
Nc1ncc(-c2cn[nH]c2)cc1-c1nc2cc(Cl)cnc2[nH]1 [MMV023370] | 1.1
O=C(NC1CCN(c2ccnc3ccccc23)C1)c1cccc(C(F)(F)F)c1 (stereo not shown) [MMV023388] | -0.0357
NS(=O)(=O)c1cccc(-c2ccc3ncc(N4CCOCC4)nc3c2)c1 [MMV023860] | 1.6
